This note sets out measurements from patent US12064464B2, “Plantaricin NC8 alpha beta markedly enhances the effects of antibiotics” (priority 2018, dated 2024).

Assay [1] has as its system S. epidermidis ATCC 12228. Briefly: Broth microdilution MIC/MBC. It is filed as cell-based, Staphylococcus epidermidis. The settings on record: for MBC / MIC: Table 2, antibiotic alone; for enhancement of the inhibitory effects of β1-20 and β7-20: co-incubation with α-peptide; for growth inhibition of S. epidermidis: single full-length or truncated peptide. From the text:
(§1) Staphylococcus aureus CCUG 35601 (MRSA, Culture Collection, University of Gothenburg) and Staphylococcus aureus ATCC 29213 (MSSA, ATCC, Manassas, VA). Staphylococcus epidermidis ATCC 12228 (ATCC, Manassas, VA), RP62A, N15 and 10 clinical isolates of Staphylococcus epidermidis that have previously been characterized. Isolated Escherichia coli, Enterococcus faecium (including VRE), Pseudomonas aeruginosa, Klebsiella pneumoniae, Enterobacter spp and Acinetobacter baumannii were obtained from Orebro University hospital. Isolated Streptococcus mutans, Streptococcus constellatus and Streptococcus anginosus were obtained from Malmo University. The bacteria were grown on Luria-Bertani (LB) agar plates, supplemented with 5% defibrinated horse blood, and incubated at 37° C. overnight. Single colonies were inoculated into 5 ml of LB broth and incubated on a shaker (300 rpm) at 37° C. overnight. The bacterial concentration was determined by viable count and adjusted to correlate with approximately 10^9 CFU/ml.
(§2) The broth microdilution method was used to determine minimal inhibitory concentration (MIC) and minimal bactericidal concentration (MBC). Two-fold serial dilutions of the peptides were used and the final concentrations ranged from 0.097-50 μM. […] The effect of bacteriocin-antibiotic combinations was accomplished by using the same concentration series of antibiotics with a constant concentration of PLNC8 αβ (3.1 μM) in all the wells. […] All experiments were repeated at least three times.
A general note: Dilution methods test growth across graded concentrations, often in twofold steps.

A further assay has as its system Enterococcus faecium. Briefly: Broth microdilution MIC/MBC. It is filed as cell-based. The settings on record: antibiotic alone, unit inferred; for MIC: unit assumed.
Description: as §1, §2

For a further assay, the system named is Escherichia coli. Briefly: Broth microdilution MIC/MBC. Format: cell-based. The settings on record: antibiotic alone, unit not given; for MBC: in µg/mL.
Description: as §1, §2

For a further assay, the system named is S. epidermidis. The assay is described as follows: Broth microdilution MIC/MBC, strain not named. Format: cell-based, Staphylococcus epidermidis.
Description: as §1, §2

The subject of another assay is Pseudomonas aeruginosa. Briefly: Broth microdilution MIC/MBC. Format: cell-based. The settings on record: P. aeruginosa, antibiotic alone, unit not given.
Description: as §1, §2

Assay [2] is described as follows: Fluorescence leakage assay (CF release from liposomes). The settings on record: peptide alone. As for the experimental part: Liposomes were prepared by dry film formation, hydration and finally extrusion through a polycarbonate membrane to form monodisperse large unilamellar vesicles. […] A dry lipid film was formed by evaporation of the chloroform by nitrogen flow and overnight lyophilization. The film was hydrated with either 10 mM phosphate buffer (PB) pH 7 or 10 mM phosphate buffer saline (PBS) pH 7, and the solution was vortexed for 1 min and put on a shaker for 1 h before extruded 21 times through a 100 nm pore-sized polycarbonate membrane. For fluorescence leakage assay the lipid film was hydrated with buffer (PBS) containing self-quenching concentration (50 mM) of 5(6)-carboxyfluorescein (CF) (Sigma Aldrich) and liposomes were prepared as described above. Removal of unencapsulated CF was done by gel filtration using a PD-25 column (GE Healthcare, Uppsala, Sweden) and liposomes with encapsulated CF were eluted with PBS. Leakage of the liposome encapsulated fluorophore CF due to additions of the bacteriocins was recorded using a fluorescence plate reader (Infinite 200, Tecan, Austria) where λex=485 nm and λem=520 nm. CF was encapsulated at self-quenching concentration, and CF release results in an increased fluorescence signal. […] In order to estimate the maximum release from each sample a final addition of 0.5% Triton X-100 was made at the end of all measurements and the total amount of CF (100% release) was estimated after 15 min incubation. The CF release is presented as percentage release for each time interval (measurements taken every minute). The percentage CF release is calculated as 100×(F−F0)/(FT−F0) where F0 is the initial fluorescence intensity of CF before peptide addition, F is the fluorescence intensity of CF at time point t and FT is the maximum fluorescence after the addition of Triton X-100.

[3] abbreviates: Vancomycin resistant E. faecium (VRE).
Setting [4] is: Non-ESBL E. coli, first isolate.
Where [5] appears, read: Non-ESBL E. coli, second isolate.
The mark [6] stands for this setting: ESBL-producing E. coli, first isolate.
Setting [7] is: ESBL-producing E. coli, second isolate.

“Also recorded” adds a separate entry of the source. Like-named read-outs stand apart in the source and are kept apart here.

Regarding `CO[C@H]1/C=C/O[C@@]2(C)Oc3c(C)c(O)c4c(O)c(c(/C=N/N5CCN(C)CC5)c(O)c4c3C2=O)NC(=O)/C(C)=C\C=C\[C@H](C)[C@H](O)[C@@H](C)[C@@H](O)[C@@H](C)[C@H](OC(C)=O)[C@@H]1C` [Rifampicin], the MBC was 0.5 µg/mL in assay [1] (Staphylococcus epidermidis, ATCC12228, read-out: MBC); greater than 50 µg/mL in the assay on Enterococcus faecium (E. faecium, first isolate); greater than 50 µg/mL in the assay on Enterococcus faecium (E. faecium, second isolate); 3.1 µg/mL in the assay on Enterococcus faecium (setting [3]); 25 with Escherichia coli (setting [5]); 0.5 µg/mL in the assay with S. epidermidis (Staphylococcus epidermidis, Table 8, antibiotic alone, read-out: MBC). The MIC in assay [1] (Staphylococcus epidermidis, ATCC12228, read-out: MIC) was 0.25 µg/mL; with Enterococcus faecium (E. faecium, first isolate), greater than 50 µg/mL; in the assay on Enterococcus faecium (E. faecium, second isolate) it was 25 µg/mL; with Enterococcus faecium (setting [3]) it was less than 0.097 µg/mL; with Escherichia coli (setting [4]), 6.25; in the assay with Escherichia coli (setting [5]) it was 6.25. In the assay with S. epidermidis (Staphylococcus epidermidis, Table 8, antibiotic alone, read-out: MIC), the MIC was determined as 0.25 µg/mL. Moreover, the “effective amount of rifampicin” value with S. epidermidis (in the presence of L-PLNC8 αβ or D-PLNC8 αβ) was found to be 0.0019 µg/mL.
For the molecule “DLTTKLWSSWGYYLG (Lactobacillus plantarum NC8) [α1-15]”, the “enhancement of the inhibitory effects of β1-20 and β7-20” value in assay [1] is listed as “not further enhanced; also recorded: did not further enhance”.
Regarding Gentamicin, the MBC in assay [1] was 0.31 µg/mL; in the assay with Enterococcus faecium (E. faecium, first isolate) it was greater than 50 µg/mL; with Enterococcus faecium (E. faecium, second isolate) it was 50 µg/mL; in the assay on Enterococcus faecium (setting [3]), greater than 50 µg/mL; in the assay with Escherichia coli (setting [6]), greater than 50; in the assay with Escherichia coli (setting [7]) it was 6.25. In addition, the MBC worked out at 1.56 with Escherichia coli (setting [4]) and 3.125 with Escherichia coli (setting [5]). Besides, the MIC in assay [1] was 0.31 µg/mL; with Enterococcus faecium (E. faecium, first isolate), 50 µg/mL; in the assay on Enterococcus faecium (E. faecium, second isolate), 50 µg/mL; with Enterococcus faecium (setting [3]) it was greater than 50 µg/mL; with Escherichia coli (setting [6]) it was greater than 50; in the assay on Escherichia coli (setting [7]), 3.125. Besides, the MIC in the assay with Escherichia coli (setting [4]) and with Escherichia coli (setting [5]) was 1.56 each time.
As for `C[C@H]1COc2c(N3CCN(C)CC3)c(F)cc3c(=O)c(C(=O)O)cn1c23` [Levofloxacin, reference compound], in the assay on Pseudomonas aeruginosa (first isolate), the MBC is given as 2 and the MIC was 1. Moreover, in the assay on Pseudomonas aeruginosa (second isolate), the MBC stood at 4 and the MIC is 4.
In the case of “YTLGIKILWSAYKHRKTIEKSFNKGFYH (Lactobacillus plantarum NC8) [β7-34]”, the “disruption of liposome membranes (CF release)” value (from here on “disruption”) in assay [2] is reported as “Disruption of the liposome membranes”. The “growth inhibition of S. epidermidis” value in assay [1] was “inhibited”.
“DLTTKLWSSWGYYLGKKARWNL (Lactobacillus plantarum NC8) [α1-22]”: the “disruption” value in assay [2] is on record as “disrupted the membrane of the liposomes”. For the same molecule, the “enhancement of the inhibitory effects of β1-20 and β7-20” value in assay [1] was “not further enhanced; also recorded: did not further enhance”. Further, the “inhibitory and bactericidal effects on S. epidermidis” value in assay [1] (α-peptide in combination with the β-peptide) is “exerted inhibitory and bactericidal effects; also recorded: inhibited”.
`C[C@@H](O)[C@H]1C(=O)N2C(C(=O)O)=C(S[C@@H]3CN[C@H](C(=O)N(C)C)C3)[C@H](C)[C@H]12` [Meropenem, reference compound]: in the assay on Pseudomonas aeruginosa (first isolate), the MBC turned out to be 50 and the MIC came to 25. For the same molecule, in the assay with Pseudomonas aeruginosa (second isolate), the MBC is on record as 25 and the MIC is recorded as 25.
As for “YTLGIKILWSAYKH (Lactobacillus plantarum NC8) [β7-20]”, in assay [2], the “disruption” value is “Disruption of the liposome membranes”. The “growth inhibition of S. epidermidis” value in assay [1] is given as “most efficiently inhibited; also recorded: inhibited”.
As for “SVPTSVYTLGIKILWSAYKH (Lactobacillus plantarum NC8) [β1-20]”, the “disruption” value in assay [2] is on record as “Disruption of the liposome membranes”. The “growth inhibition of S. epidermidis” value in assay [1] is “most efficiently inhibited; also recorded: most effective in inhibiting S. epidermidis; also recorded: inhibited”.
